In brackets after ≈: the same amount, converted by molar mass.

The subject of data set [1] is human breast cancer (MCF-7) cells. Briefly: MTT assay for cytotoxic activity. It is filed as cell-based. To be noted: Homo sapiens, MCF7, MCF-7 cells, read-out: IC50 (Mean ± SEM), cytotoxic activity. The text has this:
(§1) The results are expressed as IC50 values (µM) and are depicted in Table 3.
For orientation: Tetrazolium assays rely on reduction of a dye to a coloured formazan, in cell work by metabolically active cells.

Data set [2] can be described thus: MTT assay for cytotoxic activity. Format: cell-based. To be noted: African green monkey, Vero cells (normal kidney epithelial cell line), read-out: IC50 (Mean ± SEM), cytotoxic activity.
Excerpt: as §1

Data set [3] addresses T1, E. coli Topoisomerase IV (Escherichia coli, UniProt P20083).
T1 construct: purchased Inspiralis
Description: In vitro enzyme inhibition, topoisomerase IV decatenation kit (Inspiralis). Format: biochemical. As for the experimental part: (§2) This test was performed at the Confirmatory Diagnostic Unit, VACSERA, Egypt.
(§3) The screening performed against E. coli DNA gyrase B, E. coli Topoisomerase IV and dihydrofolate reductase enzymes.

Data set [4] deals with Staphylococcus aureus ATCC 29213. Briefly: MIC, modified agar well diffusion method. It is filed as cell-based. To be noted: ATCC29213, S. aureus ATCC 29213, read-out: MIC (Mean ± SEM). From the text: (§4) The antimicrobial activity of all synthesized compounds 2–13 was screened against a panel of two Gram-positive bacteria (Staphylococcus aureus ATCC 29213 and Bacillus subtilis ATCC 6633), two Gram-negative bacteria (Escherichia coli ATCC 25922, Pseudomonas aeruginosa ATCC 27853) and two fungi (Candida albicans ATCC 10231 and Aspergillus flavus ATCC 46283) using the agar well diffusion method. Ciprofloxacin and clotrimazole were used as antibacterial and antifungal standards, respectively. The results of this study were recorded as the average diameter of the inhibition zones (IZ) in Table 1. […] Additionally, the promising activity against S. aureus was observed from compounds 9, 12 and 13, however against B. subtilis from compounds 12 and 13.
(§5) The antimicrobial assay was performed in vitro for the target compounds 2–13 against Staphylococcus aureus ATCC 29213, Bacillus subtilis ATCC 6633 as Gram-positive bacteria, Escherichia coli ATCC 25922, Pseudomonas aeruginosa ATCC 27853 as Gram-negative bacteria and Candida albicans ATCC 10231, Aspergillus flavus ATCC 46283 as fungi. At the first, 100 μL of the test bacteria/fungi were grown in 10 mL of fresh media until they reached a count of approximately 10^8 cells/ml for bacteria or 10^5 cells/mL for fungi. One milliliter of each sample (at 0.5 mg/mL) was added to each well (10 mm diameter holes cut in the agar gel). The plates were incubated for 24 h at 37 °C (for bacteria and yeast) and for 72 h at 27 °C (for filamentous fungi), each test was repeated three times. After incubation, the microorganism’s growth was observed. Ciprofloxacin and clotrimazole were used as standard antibacterial and antifungal drugs, respectively. The resulting inhibition zone diameters were measured in millimeters using the diffusion technique. […] The different concentrations (triplicate) of each compound were tested and compared with standard drugs.
(A growth-free zone around the sample is the usual read-out of agar diffusion tests.)

The test system of data set [5] is Escherichia coli ATCC 25922. Briefly: MIC, modified agar well diffusion method. The settings on record: ATCC25922, E. coli ATCC 25922, read-out: MIC (Mean ± SEM). Format: cell-based.
Excerpt: as §4, §5

Data set [6] concerns Bacillus subtilis ATCC 6633. Description: MIC, modified agar well diffusion method. To be noted: ATCC6633, B. subtilis ATCC 6633, read-out: MIC (Mean ± SEM). Format: cell-based.
Excerpt: as §4, §5

Data set [7] relates to Candida albicans ATCC 10231. Briefly: MIC, modified agar well diffusion method. It is filed as cell-based. To be noted: ATCC10231, C. albicans ATCC 10231, read-out: MIC (Mean ± SEM).
Excerpt: as §4, §5

Data set [8] concerns Aspergillus flavus ATCC 46283. Briefly: MIC, modified agar well diffusion method. It is filed as cell-based. To be noted: ATCC46283, A. flavus ATCC 46283, read-out: MIC (Mean ± SEM).
Excerpt: as §4, §5

For data set [9], the system named is Pseudomonas aeruginosa ATCC 27853. Description: MIC, modified agar well diffusion method. It is filed as cell-based. To be noted: ATCC27853, P. aeruginosa ATCC 27853, read-out: MIC (Mean ± SEM).
Excerpt: as §4, §5

In data set [10] the test system is Staphylococcus aureus ATCC 29213. Briefly: Agar well diffusion, inhibition zone. Format: cell-based. More on the design: dose or concentration left out as unconfirmed. The settings on record: ATCC29213, S. aureus ATCC 29213, NA = No Activity, read-out: Mean Diameter of Inhibition Zone (Mean ± SEM).
Excerpt: as §4
as §5, with “One milliliter of each sample (at 0.5 mg/mL) was added to each well (10 mm diameter holes cut in the agar gel).” left out

For data set [11], the system named is Bacillus subtilis ATCC 6633. Description: Agar well diffusion, inhibition zone. Format: cell-based. Set-up: dose or concentration left out as unconfirmed. To be noted: ATCC6633, B. subtilis ATCC 6633, NA = No Activity, read-out: Mean Diameter of Inhibition Zone (Mean ± SEM).
Excerpt: as §4
as §5, with “One milliliter of each sample (at 0.5 mg/mL) was added to each well (10 mm diameter holes cut in the agar gel).” left out

Data set [12] addresses T2, dihydrofolate reductase (DHFR) (Homo sapiens, UniProt P00374).
T2 construct: purchased Bio Vision
T2 sequence (P00374 1-187): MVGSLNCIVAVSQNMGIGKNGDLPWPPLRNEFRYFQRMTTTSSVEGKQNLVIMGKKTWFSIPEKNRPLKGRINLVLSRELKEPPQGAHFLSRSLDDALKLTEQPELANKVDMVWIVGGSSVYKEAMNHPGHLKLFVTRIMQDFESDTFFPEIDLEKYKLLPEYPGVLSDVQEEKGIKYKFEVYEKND
Description: Dihydrofolate reductase inhibitor screening kit (colorimetric, BioVision). It is filed as biochemical. The settings on record: read-out: IC50 (mean ± SEM). Here is the method: as §2, §3

In data set [13] the target is T3, E. coli DNA gyrase B (Escherichia coli, UniProt P0AES6).
T3 construct: purchased Inspiralis
Briefly: In vitro enzyme inhibition, DNA gyrase microplate assay kit (Inspiralis). Format: biochemical. As for the experimental part:
as §2, §3

Data set [14] deals with Escherichia coli ATCC 25922. Briefly: Agar well diffusion, inhibition zone. It is filed as cell-based. To be noted: ATCC25922, E. coli ATCC 25922, NA = No Activity, read-out: Mean Diameter of Inhibition Zone (Mean ± SEM). More on the design: dose or concentration left out as unconfirmed.
Excerpt: as §4, §5

Data set [15] relates to Candida albicans ATCC 10231. Description: Agar well diffusion, inhibition zone. The settings on record: ATCC10231, C. albicans ATCC 10231, NA = No Activity, read-out: Mean Diameter of Inhibition Zone (Mean ± SEM). Format: cell-based. More on the design: dose or concentration left out as unconfirmed.
Excerpt: as §4, §5

Data set [16] relates to Aspergillus flavus ATCC 46283. Briefly: Agar well diffusion, inhibition zone. Format: cell-based. Set-up: dose or concentration left out as unconfirmed. To be noted: ATCC46283, A. flavus ATCC 46283, NA = No Activity, read-out: Mean Diameter of Inhibition Zone (Mean ± SEM).
Excerpt: as §4, §5

Data set [17] deals with Pseudomonas aeruginosa ATCC 27853. Briefly: Agar well diffusion, inhibition zone. Format: cell-based. More on the design: dose or concentration left out as unconfirmed. The settings on record: ATCC27853, P. aeruginosa ATCC 27853, NA = No Activity, read-out: Mean Diameter of Inhibition Zone (Mean ± SEM).
Excerpt: as §4, §5

Data set [18] has as its system Staphylococcus aureus DNA gyrase. More on the design: method as in PMID 25792505. To be noted: cited from earlier work.
Data set [19] has as its target T2, dihydrofolate reductase (DHFR). More on the design: method as in PMID 23792351. The settings on record: cited from earlier work.

T1 sequence (P0AFI2 whole entry): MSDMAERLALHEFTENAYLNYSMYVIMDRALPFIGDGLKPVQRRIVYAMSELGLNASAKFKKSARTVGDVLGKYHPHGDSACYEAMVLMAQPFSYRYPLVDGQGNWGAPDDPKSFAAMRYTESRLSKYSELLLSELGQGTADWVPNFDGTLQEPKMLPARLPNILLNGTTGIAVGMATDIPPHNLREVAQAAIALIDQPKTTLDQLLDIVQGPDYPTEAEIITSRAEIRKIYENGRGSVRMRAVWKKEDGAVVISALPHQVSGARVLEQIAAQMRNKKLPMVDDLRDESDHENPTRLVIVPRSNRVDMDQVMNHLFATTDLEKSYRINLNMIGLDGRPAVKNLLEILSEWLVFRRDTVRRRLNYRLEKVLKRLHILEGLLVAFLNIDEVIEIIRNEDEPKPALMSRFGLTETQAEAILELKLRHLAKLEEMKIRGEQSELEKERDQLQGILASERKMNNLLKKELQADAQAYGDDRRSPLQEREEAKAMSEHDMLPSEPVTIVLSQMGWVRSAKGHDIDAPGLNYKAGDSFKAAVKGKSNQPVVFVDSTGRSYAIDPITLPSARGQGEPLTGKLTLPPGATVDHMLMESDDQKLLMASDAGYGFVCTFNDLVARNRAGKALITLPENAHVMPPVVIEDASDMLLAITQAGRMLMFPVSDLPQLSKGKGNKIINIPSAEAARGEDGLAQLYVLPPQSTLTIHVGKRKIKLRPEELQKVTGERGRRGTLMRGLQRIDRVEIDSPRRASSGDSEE
T1 sequence (P20083 whole entry): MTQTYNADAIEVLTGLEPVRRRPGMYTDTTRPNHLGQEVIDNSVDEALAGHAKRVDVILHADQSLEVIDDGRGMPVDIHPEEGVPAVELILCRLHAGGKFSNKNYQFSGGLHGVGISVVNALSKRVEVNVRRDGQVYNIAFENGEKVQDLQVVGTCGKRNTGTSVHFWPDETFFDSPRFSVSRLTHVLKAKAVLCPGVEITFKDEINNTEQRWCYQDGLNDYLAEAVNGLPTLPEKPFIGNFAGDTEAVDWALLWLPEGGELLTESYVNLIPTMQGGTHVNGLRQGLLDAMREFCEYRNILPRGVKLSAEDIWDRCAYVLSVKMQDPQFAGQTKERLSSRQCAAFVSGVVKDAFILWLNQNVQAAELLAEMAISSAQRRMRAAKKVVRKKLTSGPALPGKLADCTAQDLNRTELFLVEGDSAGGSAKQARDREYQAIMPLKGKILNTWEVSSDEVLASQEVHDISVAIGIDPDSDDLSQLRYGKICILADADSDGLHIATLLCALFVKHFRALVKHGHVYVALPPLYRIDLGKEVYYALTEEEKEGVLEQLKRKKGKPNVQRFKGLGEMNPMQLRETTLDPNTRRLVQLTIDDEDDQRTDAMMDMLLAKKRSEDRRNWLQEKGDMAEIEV

The IC50 is the concentration that gives 50% inhibition. A word on the MIC: it is the smallest concentration in the dilution series that meets the test's criterion for growth inhibition. The term zone of inhibition denotes the extent of the growth-free halo in a diffusion test. For `N#CCC(=O)NNC(=S)NC(=O)Cc1ccccc1` [Compound 8, 1-(2-Cyanoacetyl)-4-phenylacetylthiosemicarbazide], the IC50 in [1] came to 22.4 ± 0.36 µM; in data set [2], 144.7 ± 0.36 µM; in [3] it was 19.7 ± 1 µM; in data set [12], 189.5 ± 1.06 µM; in data set [13] it was 0.33 µM. Also, the MIC in data set [4] worked out at 3.25 ± 1 µg/mL (≈ 11.8 µM); in data set [5], 0.95 ± 0.22 µg/mL (≈ 3.44 µM); in data set [6], 1.38 ± 0.25 µg/mL (≈ 4.99 µM); in data set [7] it was 39.8 ± 0.2 µg/mL (≈ 144 µM); in data set [8], 2.11 ± 0.51 µg/mL (≈ 7.64 µM); in [9] it was 1.25 ± 0.5 µg/mL (≈ 4.52 µM). Further, the zone of inhibition is 39 ± 1.21 mm in data set [10]; 42 ± 0.3 mm in data set [11]; 27 ± 0.62 mm in [14]; 18 ± 0.05 mm in data set [15]; 27 ± 0.21 mm in [16]; 36 ± 0.12 mm in data set [17].
On to `Cc1occc1C(=O)NNC(=S)NC(=O)c1ccccc1` [I], for which the IC50 in [18] was 14.6 µM.
Consider `COc1ccc(NC(=S)Nc2nc(-c3nnc(S)n3-c3ccc(OC)cc3OC)cs2)c(OC)c1` [V], for which, in [19], the “fold more active than the positive control methotrexate as DHFR inhibitor” value is reported as 2.7 fold.

The record behind these values is article PMC7356696, “Synthesis, Antimicrobial Activity and Molecular Docking of Novel Thiourea Derivatives Tagged with Thiadiazole, Imidazole and Triazine Moieties as Potential DNA Gyrase and Topoisomerase IV Inhibitors” (Molecules, 2020).
